# Earlier results, collected in patent US12268679B1 (priority 2021, dated 2025).
# What was measured:
# [1] = molecular target: human delta receptor (Homo sapiens, UniProt P41143); conditions: Ferrari et al. 2017
# [2] = animal studies, systemic administration, Hirao et al. 2008
# human delta receptor, sequence (P41143 whole entry): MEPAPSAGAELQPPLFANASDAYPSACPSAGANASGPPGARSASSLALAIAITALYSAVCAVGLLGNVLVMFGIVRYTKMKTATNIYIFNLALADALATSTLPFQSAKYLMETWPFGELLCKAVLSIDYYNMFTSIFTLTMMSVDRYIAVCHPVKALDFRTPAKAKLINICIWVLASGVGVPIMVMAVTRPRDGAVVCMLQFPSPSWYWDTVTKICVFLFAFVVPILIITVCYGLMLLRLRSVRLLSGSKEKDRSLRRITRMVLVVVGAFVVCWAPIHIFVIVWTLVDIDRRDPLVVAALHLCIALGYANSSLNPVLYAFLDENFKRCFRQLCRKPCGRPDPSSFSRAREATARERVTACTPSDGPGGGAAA
smiles,measurement,setting,value
"CC1(N2CCC(n3c([C@@H]4CCCNC4)nc4ccccc43)CC2)CCCCCCC1 [MCOPPB, 1-[1-(1-methylcyclooctyl)-4-piperidinyl]-2-[(3R)-3-piperidinyl]-1H-benzimidazole]",activation of human delta receptor,[1],only a small amount
same,inhibition of memory or motor function,[2],no inhibition of memory or motor function
same,sedative side effects,[2]; appear only at much higher doses than the effective anxiolytic dose range,only slight sedative side effects
